ChEMBL document CHEMBL4616601, “Meeting organometallic chemistry with drug discovery: CH activation enabled discovery of a new ring system of 12H-Indazolo[2,1-a]cinnolin-12-ones with anti-proliferation activity” (Bioorg Med Chem Lett, 2020)
Active and inactive are the calls of the source. The rule behind the calls is not given here.

Tests used:
PC-3 [1] = assay: Antiproliferative activity against human PC3 cells at 0.5 uM assessed as inhibition of cell viability after 72 hrs by CCK-8 assay relative to control; type: functional; conditions: PC-3, 72 h
PC-3 [2] = assay: Inhibition of colony formation in human PC3 cells after 1 week; type: functional, cell-based
HeLa = assay: Antiproliferative activity against human HeLa cells assessed as reduction in cell viability; type: functional, cell-based
PC-3 [3] = assay: Induction of apoptosis in human PC3 cells assessed as reduction in caspase-3 expression after 24 hrs by Western blot analysis; type: functional, cell-based
NCI-H1299 = assay: Antiproliferative activity against human NCI-H1299 cells assessed as reduction in cell viability; type: functional, cell-based
PC-3 [4] = assay: Induction of apoptosis in human PC3 cells assessed as late apoptotic cells at 250 nM after 24 hrs by Annexin V-FITC/propidium iodide staining-based flow cytometry (reference value: 12.21%); type: functional
PC-3 [5] = assay: Induction of cell cycle arrest in human PC3 cells assessed as accumulation at G1 phase at 100 nM after 24 hrs by flow cytometry (reference value: 56.46%); type: functional
HepG2 = assay: Antiproliferative activity against human HepG2 cells assessed as reduction in cell viability; type: functional, cell-based
PC-3 [6] = assay: Inhibition of colony formation in human PC3 cells at 250 nM after 1 week relative to control; type: functional; conditions: PC-3, 168 h
PC-3 [7] = assay: Induction of apoptosis in human PC3 cells assessed as increase in PARP cleavage after 24 hrs by Western blot analysis; type: functional, cell-based
PC-3 [8] = assay: Induction of cell cycle arrest in human PC3 cells assessed as accumulation at S phase at 100 nM after 24 hrs by flow cytometry (reference value: 24.73%); type: functional
PC-3 [9] = assay: Induction of cell cycle arrest in human PC3 cells assessed as accumulation at G1 phase at 250 nM after 24 hrs by flow cytometry (reference value: 56.46%); type: functional
PC-3 [10] = assay: Induction of apoptosis in human PC3 cells assessed as late apoptotic cells at 50 nM after 24 hrs by Annexin V-FITC/propidium iodide staining-based flow cytometry (reference value: 12.21%); type: functional
PC-3 [11] = assay: Induction of cell cycle arrest at G2/M phase in human PC3 cells assessed as increase in cyclin B1 expression after 24 hrs by Western blot analysis; type: functional, cell-based
PC-3 [12] = assay: Antiproliferative activity against human PC3 cells assessed as inhibition of cell viability at 0.5 to 5 uM after 72 hrs by CCK8 assay; type: functional, cell-based
SW1990 = assay: Antiproliferative activity against human SW1990 cells assessed as reduction in cell viability; type: functional, cell-based
PC-3 [13] = assay: Inhibition of colony formation in human PC3 cells at 50 nM after 1 week relative to control; type: functional; conditions: PC-3, 168 h
PC-3 [14] = assay: Induction of cell cycle arrest in human PC3 cells assessed as accumulation at S phase at 50 nM after 24 hrs by flow cytometry (reference value: 24.73%); type: functional
PC-3 [15] = assay: Induction of cell cycle arrest in human PC3 cells assessed as accumulation at G2/M phase at 50 nM after 24 hrs by flow cytometry (reference value: 18.81%); type: functional
DU-145 = assay: Antiproliferative activity against human DU145 cells assessed as reduction in cell viability; type: functional, cell-based
PC-3 [16] = assay: Induction of apoptosis in human PC3 cells assessed as early apoptotic cells at 50 nM after 24 hrs by Annexin V-FITC/propidium iodide staining-based flow cytometry (reference value: 11.88%); type: functional
PC-3 [17] = assay: Induction of apoptosis in human PC3 cells after 24 hrs by Annexin V-FITC/propidium iodide staining-based flow cytometry; type: functional, cell-based
PC-3 [18] = assay: Induction of apoptosis in human PC3 cells assessed as viable cells at 50 nM after 24 hrs by Annexin V-FITC/propidium iodide staining-based flow cytometry (reference value: 75.33%); type: functional; conditions: PC-3, 24 h, read-out: Activity
PC-3 [19] = assay: Induction of apoptosis in human PC3 cells assessed as viable cells at 100 nM after 24 hrs by Annexin V-FITC/propidium iodide staining-based flow cytometry (reference value: 75.33%); type: functional; conditions: PC-3, 24 h, read-out: Activity
PC-3 [20] = assay: Induction of cell cycle arrest in human PC3 cells assessed as accumulation at G2/M phase after 24 hrs by flow cytometry; type: functional, cell-based
PC-3 [21] = assay: Induction of cell cycle arrest at G2/M phase in human PC3 cells assessed as increase in CDC2 expression after 24 hrs by Western blot analysis; type: functional, cell-based
PC-3 [22] = assay: Induction of apoptosis in human PC3 cells assessed as early apoptotic cells at 100 nM after 24 hrs by Annexin V-FITC/propidium iodide staining-based flow cytometry (reference value: 11.88%); type: functional
PC-3 [23] = assay: Induction of apoptosis in human PC3 cells assessed as necrotic cells at 250 nM after 24 hrs by Annexin V-FITC/propidium iodide staining-based flow cytometry (reference value: 0.58%); type: functional
PANC-1 = assay: Antiproliferative activity against human PANC1 cells assessed as reduction in cell viability after 72 hrs; type: functional, cell-based; conditions: PANC-1, 72 h
PC-3 [24] = assay: Induction of apoptosis in human PC3 cells assessed as necrotic cells at 100 nM after 24 hrs by Annexin V-FITC/propidium iodide staining-based flow cytometry (reference value: 0.58%); type: functional
PC-3 [25] = assay: Induction of cell cycle arrest in human PC3 cells assessed as accumulation at G2/M phase at 100 nM after 24 hrs by flow cytometry (reference value: 18.81%); type: functional
SK-BR-3 = assay: Antiproliferative activity against human SKBR3 cells assessed as reduction in cell viability; type: functional, cell-based
PC-3 [26] = assay: Induction of apoptosis in human PC3 cells assessed as necrotic cells at 50 nM after 24 hrs by Annexin V-FITC/propidium iodide staining-based flow cytometry (reference value: 0.58%); type: functional
PC-3 [27] = assay: Induction of cell cycle arrest in human PC3 cells assessed as accumulation at S phase at 250 nM after 24 hrs by flow cytometry (reference value: 24.73%); type: functional
PC-3 [28] = assay: Induction of cell cycle arrest in human PC3 cells assessed as accumulation at G1 phase at 50 nM after 24 hrs by flow cytometry (reference value: 56.46%); type: functional
PC-3 [29] = assay: Induction of apoptosis in human PC3 cells assessed as viable cells at 250 nM after 24 hrs by Annexin V-FITC/propidium iodide staining-based flow cytometry (reference value: 75.33%); type: functional; conditions: PC-3, 24 h, read-out: Activity
PC-3 [30] = assay: Antiproliferative activity against human PC3 cells assessed as reduction in cell viability after 72 hrs by CCK8 assay; type: functional, cell-based; conditions: PC-3, 72 h
PC-3 [31] = assay: Induction of apoptosis in human PC3 cells assessed as late apoptotic cells at 100 nM after 24 hrs by Annexin V-FITC/propidium iodide staining-based flow cytometry (reference value: 12.21%); type: functional
PC-3 [32] = assay: Induction of cell cycle arrest in human PC3 cells assessed as accumulation at G2/M phase at 250 nM after 24 hrs by flow cytometry (reference value: 18.81%); type: functional
PC-3 [33] = assay: Induction of apoptosis in human PC3 cells assessed as reduction in PARP expression level after 24 hrs by Western blot analysis; type: functional, cell-based
PC-3 [34] = assay: Induction of apoptosis in human PC3 cells assessed as early apoptotic cells at 250 nM after 24 hrs by Annexin V-FITC/propidium iodide staining-based flow cytometry (reference value: 11.88%); type: functional
HCT-116 = assay: Antiproliferative activity against human HCT116 cells assessed as reduction in cell viability; type: functional, cell-based

Q: What does the source list for `CCOC(=O)c1c(C)n2c3ccccc3c(=O)n2c2ccc3c(c12)OCO3`?
A: inhibition at 0.5 µM (PC-3 [1]): 62.8%; inhibition (PC-3 [2]): Dose-dependent effect; IC50 (HeLa): 41 to 188 nM; Activity (PC-3 [3]): Dose-dependent effect; IC50 (NCI-H1299): 41 to 188 nM; Activity (PC-3 [4]): 62.42%; Activity (PC-3 [5]): 46.89%; IC50 (HepG2): 41 to 188 nM; inhibition at 0.25 µM (PC-3 [6]): 98%; Activity (PC-3 [7]): Dose-dependent effect; Activity (PC-3 [8]): 22.46%; Activity (PC-3 [9]): 14.06%; Activity (PC-3 [10]): 37.02%; Activity (PC-3 [11]): Dose-dependent effect; Activity (PC-3 [12]): Active; IC50 (SW1990): 41 to 188 nM; inhibition at 0.05 µM (PC-3 [13]): 85%; Activity (PC-3 [14]): 23.43%; Activity (PC-3 [15]): 21.45%; IC50 (DU-145): 41 to 188 nM; Activity (PC-3 [16]): 25.82%; Activity (PC-3 [17]): Dose-dependent effect; viability at 0.05 µM (PC-3 [18]): 34.7%; viability at 0.1 µM (PC-3 [19]): 13%; Activity (PC-3 [20]): Dose-dependent effect; Activity (PC-3 [21]): Dose-dependent effect; Activity (PC-3 [22]): 18.52%; Activity (PC-3 [23]): 4.97%; IC50 (PANC-1): 197 nM; Activity (PC-3 [24]): 12.2%; Activity (PC-3 [25]): 30.65%; IC50 (SK-BR-3): 41 to 188 nM; Activity (PC-3 [26]): 2.48%; Activity (PC-3 [27]): 24.16%; Activity (PC-3 [28]): 55.12%; viability at 0.25 µM (PC-3 [29]): 4.73%; IC50 (PC-3 [30]): 159 nM; Activity (PC-3 [31]): 56.27%; Activity (PC-3 [32]): 61.78%; Activity (PC-3 [33]): Dose-dependent effect; Activity (PC-3 [34]): 27.88%; IC50 (HCT-116): 41 to 188 nM
